Source: patent US5200343A, “Method for microbial dehalogenation of haloaliphatic compounds using a sulfate reducing bacteria, desulfomonile tiedjei” (Board of Trustees operating Michigan State University, priority 1991, dated 1993)
Read-outs that look alike come from different tables or passages of the source.

What was measured:
[1] = tested on: Desulfomonile tiedjei cells; experiment: 3-chlorobenzoate dechlorination by starved stationary phase induced cells with or without pyruvate (Table 3); format: cell-based
Experimental: Cultures were grown using strict anaerobic technique in a synthetic minimal medium amended with vitamins (DeWeerd, et al, Arch. of Microbiol. 154, 23-30 (1990)), pyruvate at 20 mM, and reduced with 1 mM cysteine and 0.1 mM Na2 S2 O4. The concentration of nicotinamide and 1,4-naphthoquinone were 500 μgl^-1 and 200 μgl^-1, respectively. Thiamine, hemin and lipoic acid were used at 50 μg/liter. To induce 3-chlorobenzoate dechlorination activity, 3-fluorobenzoate was added to 0.1 mM. The complete medium was inoculated with a 1% transfer from homologous medium (without fluorobenzoate). […]
Cultures were harvested by centrifugation and resuspended in 20 to 40% of the initial volume in a cold anaerobic assay buffer normally consisting of 50 mM NaCl, 10 mM sodium pyruvate, 10 mM HEPES (N-2[hydroxyethylP]piperazine-N'-[2-ethanesulfonic acid], hemisodium salt Sigma);, 0.00001% resazurin and reduced with 1 mM cysteine-HCl and 1 mM titanium (III) citrate. […] The assays were terminated at the indicated times by transferring the serum bottles to an ice water bath, where they were stored until analyzed. Protein concentrations were determined by a modification of the Lowry method (Hanson, R. S. and J. A. Phillips, In P. Gerhardt (ed.) Manual of methods for general microbiology. American Society for Microbiology, Washington, D. C. p. 328-364 (1981)). […]

[2] = tested on: 3-Chlorobenzoate Dechlorination Activity; experiment: Induction of 3-chlorobenzoate dechlorination activity by growth with 3-chlorobenzoate, analogues, or chloro- and iodobenzoates (Tables 4, 5); format: cell-based, Desulfomonile tiedjei
Experimental: Table 4. Cultures were grown in the presence of 3-chlorobenzoate or a 3-chlorobenzoate analogue substituted at the 1- or 3- position with the indicated functional groups. After several generations the culture were concentrated, washed and resuspended in anaerobic buffered salts containing 1 mM 3-chlorobenzoate and 10 mM pyruvate (as electron donor). […] After two hours samples were taken for benzoate analysis by HPLC. Values presented are the average of duplicate or triplicate cultures ± sample standard deviation.
Table 5. Chloro- and iodobenzoates were tested as inducers of 3-chlorobenzoate dehalogenation activity as described in the legend to Table 4. All compounds were initially at 500 μM; the 3-halo compounds were amended during growth as they were dehalogenated. Values presented are the average of duplicate or triplicate cultures± sample standard deviation.

[3] = tested on: Desulfomonile tiedjei cells; experiment: PCE and TCE dechlorination by resuspended cells induced with 3-fluorobenzoate versus non-induced cells (Table 1, FIG. 1); format: cell-based; settings: for Mole % recovered, PCE / Mole % recovered, TCE / Mole % recovered, cis-DCE / Total Cl Removed: 2 μg/ml substrate, 37° C., 2 hr; for Mole % recovered, PCE / Mole % recovered, TCE / Mole % recovered, cis-DCE: average of duplicate vials; for Total Cl Removed: calculated from input concentration and Mole % recovered
Experimental: (§1) Cultures were grown using strict anaerobic technique in a synthetic minimal medium amended with vitamins (DeWeerd, et al, Arch. of Microbiol. 154, 23-30 (1990)), pyruvate at 20 mM, and reduced with 1 mM cysteine and 0.1 mM Na2 S2 O4. The concentration of nicotinamide and 1,4-naphthoquinone were 500 μgl^-1 and 200 μgl^-1, respectively. Thiamine, hemin and lipoic acid were used at 50 μg/liter. To induce 3-chlorobenzoate dechlorination activity, 3-fluorobenzoate was added to 0.1 mM. The complete medium was inoculated with a 1% transfer from homologous medium (without fluorobenzoate). Cultures were grown at 37° C. in the dark for about 14 days for fresh cells or 28 days for starved stationary phase cells.
(§2) Cultures were harvested by centrifugation and resuspended in 20 to 40% of the initial volume in a cold anaerobic assay buffer normally consisting of 50 mM NaCl, 10 mM sodium pyruvate, 10 mM HEPES (N-2[hydroxyethylP]piperazine-N'-[2-ethanesulfonic acid], hemisodium salt Sigma);, 0.00001% resazurin and reduced with 1 mM cysteine-HCl and 1 mM titanium (III) citrate. Resuspended cells were used to completely fill N2 sparged 10 ml serum bottles after which chlorinated ethylenes were added from a 0.5 or 1 mg/ml stock in methanol for PCE and TCE respectively. The vials were immediately sealed with Teflon lined rubber septa and aluminum crimp seals, leaving no headspace. The assays were commenced by transferring the serum bottles to a 37° C. water bath. The assays were terminated at the indicated times by transferring the serum bottles to an ice water bath, where they were stored until analyzed. Protein concentrations were determined by a modification of the Lowry method (Hanson, R. S. and J. A. Phillips, In P. Gerhardt (ed.) Manual of methods for general microbiology. American Society for Microbiology, Washington, D. C. p. 328-364 (1981)).
(§3) Chlorinated ethylenes were monitored with a Tekmar purge and trap unit (model 4000) connected to a Hewlett-Packard GC (Sunnyville, Calif.) equipped with an HP-5 cappillary column (30 m×0.53 mm×2.6 μm film thickness) and flame ionization detector. Samples (5 ml) were purged onto Tenax TA (Supelco, Bellefonte, Pa.) adsorbent with helium (30 ml/min for 16 min.), desorbed (180° C. for 4 min.), and separated using helium as a carrier at 6 ml/min. The temperature program was 30° C. for 8 min, increasing to 200° C. at 4° C./min and followed by an isothermal period of 5 min. The injection and detector temperatures were 220° C. and 300° C., respectively. PCE and its dechlorinated products were identified by comparison with authentic standards.
To further examine the transformation of both PCE and TCE and to determine if dechlorination of TCE also requires induction, a similar experiment was conducted to measure the initial transformation rates of PCE and TCE (Table 1.). […] The extent of transformation of PCE to TCE ([…] in 2H) was considerably faster than the rate of transformation of TCE to DCE ([…] in 2h), as expected from the redox potentials of these reactions (Vogel, T. M., et al., Environ. Sci. Technol. 21:722-736 (1987)) and results from mixed culture systems (Bouwer, E. J., and P. L. McCarty, Appl. Environ. Microbiol. 45:1286-1294 (1983)). The rate of transformation of PCE and TCE were much greater for the induced cultures than for the non-induced cultures.
^a suspensions were amended with PCE or TCE to a final concentration
of 2 μg/ml and incubated at 37° C. for 2 hr. Suspensions of
induced and uninduced cells contained 149 and 153 μg protein per ml
^b Data are presented as the average of duplicate vials with the
sample standard deviation in parenthesis.
^c Calculated from the input concentration of chlorinated ethylenes
and the Mole % of recovered material.

[4] = tested on: Desulfomonile tiedjei cells; experiment: Effect of different medium reductants and sterilant on PCE dechlorination by induced cells (Table 2); format: cell-based; settings: PCE 1.66 μg/ml, 37° C., 2 hours
Experimental: as §1, with “The” for “Cultures were grown using strict anaerobic technique in a synthetic minimal medium amended with vitamins (DeWeerd, et al, Arch. of Microbiol. 154, 23-30 (1990)), pyruvate at 20 mM, and reduced with 1 mM cysteine and 0.1 mM Na2 S2 O4. The”
as §2, with “analyzed.” for “analyzed. Protein concentrations were determined by a modification of the Lowry method (Hanson, R. S. and J. A. Phillips, In P. Gerhardt (ed.) Manual of methods for general microbiology. American Society for Microbiology, Washington, D. C. p. 328-364 (1981)).”
as §3
Data are the average of duplicate vials and […]

[5] = tested on: Desulfomonile tiedjei cells; experiment: PCE dechlorination by starved stationary phase induced cells with or without pyruvate (Table 3); format: cell-based; settings: for Mole % recovered, PCE / Mole % recovered, TCE / Mole % recovered, cis-DCE / Mole % recovered, trans-DCE / Total Cl Removed: PCE 1.66 μg/ml, 37° C., 2 hours
Experimental: as §1, §2, §3
^a Starved stationary phase induced cultures were resuspended at a
concentration of 521 μg protein per ml in buffer without pyruvate,
amended with PCE to a final concentration of 1.66 μg/ml and incubated
at 37° C. for 2 hours. Data are the average of duplicate vials and
^b 0.1 mMole sodium pyruvate was added to duplicate vials before
addition of cell suspensions to give a final concentration of ca. 10 mM

[6] = tested on: Desulfomonile tiedjei; settings: cited from earlier work

O=C(O)c1cccc(Cl)c1 [3-chlorobenzoate]
3-chlorobenzoate dechlorination in absence of pyruvate relative to presence of pyruvate [1]: about 12%
Induction Activity (3-chlorobenzoate dechlorination activity) ([2]; Table 4, inducers at 500 μM except 3-formylbenzoate 100 μM and 3-chlorobenzoate (amended at intervals), assay 1 mM 3-chlorobenzoate, two hours): 672 ± 8 nMol/hr/mg protein
Induction Activity (3-chlorobenzoate dechlorination activity) ([2]; Table 5, inducers initially 500 μM, 3-halo compounds amended during growth): 672 ± 8 nMol/hr/mg protein

ClC(Cl)=C(Cl)Cl [PCE, tetrachloroethylene]
product formation from PCE or TCE ([3]; Only cultures pre-induced with 3-fluorobenzoate): measurable product formation
transformation of PCE to TCE and cis-DCE (FIG. 1) ([3]; cells grown with 0.1 mM 3-fluorobenzoate): Rapid transformation
Mole % recovered, PCE ([3]; induced (+)): 45.7 Mole %
Mole % recovered, TCE ([3]; induced (+)): 54.3 Mole %
Mole % recovered, cis-DCE ([3]; induced (+)): 0.0 Mole %
Total Cl Removed ([3]; induced (+)): 43.9 μmol/g prot. in 2 h
formation of trans-DCE from PCE ([3]; induced cells, longer time course): formation of small amounts of trans-DCE
Mole % recovered, PCE ([3]; non-induced (-)): 100.0 Mole %
Mole % recovered, TCE ([3]; non-induced (-)): 0.0 Mole %
Mole % recovered, cis-DCE ([3]; non-induced (-)): 0.0 Mole %
Total Cl Removed ([3]; non-induced (-)): 0.0 μmol/g prot. in 2 h
extent of transformation of PCE to TCE ([3]; pre-induced with 3-fluorobenzoate): 43.8 mol g protein ^-1 in 2H
dechlorination of PCE (FIG. 1) ([3]; uninduced cells): no dechlorination was detected
Mole % recovered, PCE ([4]; Formaldehyde + (0.2%)): 95.0 Mole %
Mole % recovered, TCE ([4]; Formaldehyde + (0.2%)): 5.0 Mole %
Mole % recovered, cis-DCE ([4]; Formaldehyde + (0.2%)): 0.0 Mole %
Mole % recovered, trans-DCE ([4]; Formaldehyde + (0.2%)): 0.0 Mole %
Total Cl Removed ([4]; Formaldehyde + (0.2%)): 1.0 μmol/g prot. in 2 h
Mole % recovered, PCE ([4]; Formaldehyde -): 0.0 Mole %
Mole % recovered, TCE ([4]; Formaldehyde -): 26.4 Mole %
Mole % recovered, cis-DCE ([4]; Formaldehyde -): 69.4 Mole %
Mole % recovered, trans-DCE ([4]; Formaldehyde -): 4.2 Mole %
Total Cl Removed ([4]; Formaldehyde -): 34.1 μmol/g prot. in 2 h
Mole % recovered, PCE ([4]; reductant Na2 S (1 mM)): 6.3 Mole %
Mole % recovered, TCE ([4]; reductant Na2 S (1 mM)): 18.6 Mole %
Mole % recovered, cis-DCE ([4]; reductant Na2 S (1 mM)): 70.7 Mole %
Mole % recovered, trans-DCE ([4]; reductant Na2 S (1 mM)): 4.4 Mole %
Total Cl Removed ([4]; reductant Na2 S (1 mM)): 45.4 μmol/g prot. in 2 h
Mole % recovered, PCE ([4]; reductant TiCit): 0.0 Mole %
Mole % recovered, TCE ([4]; reductant TiCit): 9.4 Mole %
Mole % recovered, cis-DCE ([4]; reductant TiCit): 85.8 Mole %
Mole % recovered, trans-DCE ([4]; reductant TiCit): 4.7 Mole %
Total Cl Removed ([4]; reductant TiCit): 50.0 μmol/g prot. in 2 h
Mole % recovered, PCE ([5]; pyruvate + (ca. 10 mM)): 2.1 Mole %
Mole % recovered, TCE ([5]; pyruvate + (ca. 10 mM)): 44.1 Mole %
Mole % recovered, cis-DCE ([5]; pyruvate + (ca. 10 mM)): 50.3 Mole %
Mole % recovered, trans-DCE ([5]; pyruvate + (ca. 10 mM)): 3.5 Mole %
Total Cl Removed ([5]; pyruvate + (ca. 10 mM)): 29.1 (0.8) μmol/g prot. in 2 h
Mole % recovered, PCE ([5]; pyruvate -): 78.6 Mole %
Mole % recovered, TCE ([5]; pyruvate -): 21.4 Mole %
Mole % recovered, cis-DCE ([5]; pyruvate -): 0.0 Mole %
Mole % recovered, trans-DCE ([5]; pyruvate -): 0.0 Mole %
Total Cl Removed ([5]; pyruvate -): 4.1 (0.3) μmol/g prot. in 2 h
PCE dechlorination in absence of pyruvate relative to presence of pyruvate ([5]; starved stationary phase cells): about 14%
Dechlorination of PCE by D. tiedjei ([6]; Fathepure et al.): 2.34 μmolg protein^-1 day^-1
Dechlorination of PCE by D. tiedjei ([6]; Suflita et al.): 4 μmol/l in five (5) months
